Measurements from patent US10568900B1, “Androgen effectors” (priority 2013, dated 2020).
“Also recorded” adds a separate entry of the source. Where two headings read alike, the source gives them in different places.

Key:
5-alpha-reductase = biological target: T1, 5-alpha-reductase (Rattus norvegicus, UniProt P24008); assay: 5-alpha-reductase activity, conversion of testosterone to dihydrotestosterone in microsomal homogenized rat livers; type: biochemical
T1 construct: in microsomal homogenized rat livers; from tissue; host or cells: rat liver microsomes
T1 sequence (P24008 1-259): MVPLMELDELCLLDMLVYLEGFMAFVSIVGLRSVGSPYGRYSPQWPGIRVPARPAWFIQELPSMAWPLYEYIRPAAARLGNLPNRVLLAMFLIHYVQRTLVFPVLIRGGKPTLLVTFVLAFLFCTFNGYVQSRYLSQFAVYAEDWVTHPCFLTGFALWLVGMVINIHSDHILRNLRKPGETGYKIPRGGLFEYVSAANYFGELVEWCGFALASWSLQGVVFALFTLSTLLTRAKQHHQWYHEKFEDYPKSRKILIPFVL
Excerpt: Finasteride (MK906 or Proscar) was used as the positive control inhibitor.

androgen receptor (AR) = biological target: T2, androgen receptor (AR) (Rattus norvegicus, UniProt P15207); assay: Androgen Receptor Binding Assay (rat prostatic cytosol), displacement of radiolabeled testosterone
T2 construct: rat prostatic cytosol as a source of androgen receptors; from tissue; host or cells: rat prostate cytosol
T2 sequence (P15207 1-902): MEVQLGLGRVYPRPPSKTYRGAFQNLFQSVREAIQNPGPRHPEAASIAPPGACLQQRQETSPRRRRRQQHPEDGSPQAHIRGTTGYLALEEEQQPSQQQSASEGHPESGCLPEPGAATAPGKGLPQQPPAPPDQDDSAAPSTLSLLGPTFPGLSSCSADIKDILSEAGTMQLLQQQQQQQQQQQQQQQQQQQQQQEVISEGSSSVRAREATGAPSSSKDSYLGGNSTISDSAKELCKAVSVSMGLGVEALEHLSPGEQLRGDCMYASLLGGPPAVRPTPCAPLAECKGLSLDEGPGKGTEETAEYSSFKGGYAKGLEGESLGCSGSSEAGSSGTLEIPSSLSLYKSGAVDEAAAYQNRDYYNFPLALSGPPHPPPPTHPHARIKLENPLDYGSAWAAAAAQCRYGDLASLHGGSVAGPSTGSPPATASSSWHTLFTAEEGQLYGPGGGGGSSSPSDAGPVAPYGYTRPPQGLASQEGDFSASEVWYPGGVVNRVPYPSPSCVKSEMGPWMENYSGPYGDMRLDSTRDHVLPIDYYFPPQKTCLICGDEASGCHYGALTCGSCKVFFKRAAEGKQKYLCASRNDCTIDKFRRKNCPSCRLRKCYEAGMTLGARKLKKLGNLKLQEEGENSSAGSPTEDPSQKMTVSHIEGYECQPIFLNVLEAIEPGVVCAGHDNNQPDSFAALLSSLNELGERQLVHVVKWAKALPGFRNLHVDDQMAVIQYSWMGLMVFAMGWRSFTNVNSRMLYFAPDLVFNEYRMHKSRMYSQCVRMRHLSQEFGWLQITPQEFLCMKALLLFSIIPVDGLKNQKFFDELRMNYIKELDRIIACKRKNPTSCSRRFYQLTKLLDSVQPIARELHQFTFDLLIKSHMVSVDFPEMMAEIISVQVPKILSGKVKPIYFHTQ
Excerpt: The Androgen Receptor Binding Assay in rat prostatic cytosol as a source of androgen receptors identifies chemicals that have the potential to interact with the androgen receptor (AR) in vitro. […] The biological action of androgens is mediated through their interaction with the AR; androgens have no hormonal activity in the absence of a functional AR. Due to a high degree of DNA sequence conservation, substances that bind the AR from rats are presumed to be capable of binding the AR in humans. (Kelce, 1998; Betney, 2003). This screening assay measures the receptor-binding affinity of chemicals by evaluating their ability to displace a bound reference androgen, showing the degree of competition for normal androgen binding and activity, either acting as an agonist or antagonist (which is not discerned by the assay).

[1] = biological target: T3, human androgen receptor (hAR) (Homo sapiens, UniProt P10275); assay: Human Androgen Receptor (hAR) assay in recombinant yeast strain BJ1991 PGKhAR; type: cell-based
T3 construct: expressed in transfected cells; host or cells: recombinant yeast strain BJ1991 PGKhAR
T3 sequence (P10275 1-920): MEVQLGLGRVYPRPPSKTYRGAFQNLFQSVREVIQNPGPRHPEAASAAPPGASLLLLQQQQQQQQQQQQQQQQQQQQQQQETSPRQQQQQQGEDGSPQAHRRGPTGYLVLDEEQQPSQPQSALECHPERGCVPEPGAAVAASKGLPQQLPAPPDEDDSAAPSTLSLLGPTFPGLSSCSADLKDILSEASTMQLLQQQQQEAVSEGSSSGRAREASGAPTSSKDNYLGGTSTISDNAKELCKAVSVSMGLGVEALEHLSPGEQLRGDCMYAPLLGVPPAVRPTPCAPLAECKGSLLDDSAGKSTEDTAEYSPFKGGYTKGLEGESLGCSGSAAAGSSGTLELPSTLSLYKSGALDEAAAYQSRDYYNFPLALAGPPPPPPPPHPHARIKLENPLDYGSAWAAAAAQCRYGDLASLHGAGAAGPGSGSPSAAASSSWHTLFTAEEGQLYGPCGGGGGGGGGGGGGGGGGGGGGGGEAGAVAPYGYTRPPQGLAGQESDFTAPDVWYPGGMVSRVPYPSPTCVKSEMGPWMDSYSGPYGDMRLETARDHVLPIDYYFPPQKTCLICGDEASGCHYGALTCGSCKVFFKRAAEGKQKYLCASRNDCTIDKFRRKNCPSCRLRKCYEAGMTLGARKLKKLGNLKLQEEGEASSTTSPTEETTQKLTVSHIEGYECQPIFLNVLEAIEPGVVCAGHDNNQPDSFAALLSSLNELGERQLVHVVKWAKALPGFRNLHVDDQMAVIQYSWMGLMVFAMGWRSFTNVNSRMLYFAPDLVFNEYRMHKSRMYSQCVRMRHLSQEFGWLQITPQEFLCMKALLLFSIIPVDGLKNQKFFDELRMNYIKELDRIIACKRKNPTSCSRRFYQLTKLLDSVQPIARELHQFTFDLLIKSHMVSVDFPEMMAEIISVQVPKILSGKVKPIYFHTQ
Excerpt: Human Androgen Receptor Assay (hAR) in recombinant yeast strain BJ1991 PGKhAR which contains the human androgen receptor (hAR) gene and a built-in color-indicator to androgenicity via an androgen response element (ARE) which is linked to a gene encoding beta-galactosidase, which hydrolyses end terminal B-galactopyranosyl residues on a chlorophenol red-B-D-galactopyranoside releasing colored indicator, chlorophenol red. Thus, test solutions turn further red with androgenicity.

yeast cells = conditions: cited from earlier work
ERα = biological target: T4, ERα (Homo sapiens, UniProt P03372); conditions: cited from earlier work
T4 construct: host or cells: yeast cells (cited work)
T4 sequence (P03372 1-595): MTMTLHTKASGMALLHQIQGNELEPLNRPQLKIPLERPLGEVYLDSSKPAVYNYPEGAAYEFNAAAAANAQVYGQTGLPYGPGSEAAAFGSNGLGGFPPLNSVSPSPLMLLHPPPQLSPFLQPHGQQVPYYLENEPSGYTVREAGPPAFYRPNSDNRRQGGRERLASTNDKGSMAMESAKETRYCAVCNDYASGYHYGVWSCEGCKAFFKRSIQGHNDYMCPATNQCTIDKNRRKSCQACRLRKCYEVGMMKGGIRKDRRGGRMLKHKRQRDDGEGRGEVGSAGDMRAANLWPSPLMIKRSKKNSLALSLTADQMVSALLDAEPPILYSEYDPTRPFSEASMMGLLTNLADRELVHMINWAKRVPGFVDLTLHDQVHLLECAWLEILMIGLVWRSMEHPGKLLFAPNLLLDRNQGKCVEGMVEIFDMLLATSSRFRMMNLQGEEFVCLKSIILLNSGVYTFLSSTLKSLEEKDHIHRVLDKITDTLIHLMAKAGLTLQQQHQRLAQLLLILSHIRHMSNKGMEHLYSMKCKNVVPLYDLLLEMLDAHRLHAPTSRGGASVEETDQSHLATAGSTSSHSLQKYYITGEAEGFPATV

[2] = cited from earlier work
ERβ = biological target: T5, ERβ (Homo sapiens, UniProt Q92731); conditions: cited from earlier work
T5 construct: host or cells: yeast cells (cited work)
T5 sequence (Q92731 whole entry, species assumed): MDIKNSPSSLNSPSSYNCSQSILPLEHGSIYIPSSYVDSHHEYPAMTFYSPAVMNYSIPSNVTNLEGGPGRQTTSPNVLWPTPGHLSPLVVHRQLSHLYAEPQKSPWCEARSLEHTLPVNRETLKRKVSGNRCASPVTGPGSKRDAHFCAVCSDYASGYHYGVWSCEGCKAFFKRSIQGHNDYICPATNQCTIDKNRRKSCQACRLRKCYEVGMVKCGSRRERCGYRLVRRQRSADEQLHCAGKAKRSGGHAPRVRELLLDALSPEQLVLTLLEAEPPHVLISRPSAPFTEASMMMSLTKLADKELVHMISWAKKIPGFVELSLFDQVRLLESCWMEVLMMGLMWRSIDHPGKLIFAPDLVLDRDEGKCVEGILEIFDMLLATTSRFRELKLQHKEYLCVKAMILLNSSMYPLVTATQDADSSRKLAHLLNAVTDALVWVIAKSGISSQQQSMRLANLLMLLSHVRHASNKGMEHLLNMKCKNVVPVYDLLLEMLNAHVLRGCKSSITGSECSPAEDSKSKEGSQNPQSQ

[3] = tested at 500 μg/ml, rat prostatic cytosol
[4] = rat liver microsomes, read-out: *50% Inhibition (converted)

Compound: CC1(C)C=Cc2c(O)ccc(C3=Cc4ccc(O)cc4OC3)c2O1 [#1 Glabrene, Glabrene]
- 5-alpha-reductase inhibition, in words (5-alpha-reductase): significant 5ARI activity; also recorded: potent dihydrotestosterone reductase inhibitors
- 5-alpha-reductase inhibition, in words (5-alpha-reductase; listed as #1): interfere with the activity of 5-alpha-reductase
- IC50 (5-alpha-reductase; read-out: IC50 (5ARI) (converted)): 15.5 µM
- inhibition at 125 µg/mL (androgen receptor (AR); tested at 125 μg/ml, rat prostatic cytosol, read-out: *Specific Binding % Inhibition): 21%
- *hAG (agonist) ([1]; tested at 25 μg/ml): Inactive
- *hAT (antagonist) ([1]; tested at 25 μg/ml): Inactive

Compound: Leucoanthocyanidin [#6 Leucoanthocyanidin]
- 5-alpha-reductase inhibition, in words (5-alpha-reductase): significant 5ARI activity
- 5-alpha-reductase inhibition, in words (5-alpha-reductase; listed as #6): interfere with the activity of 5-alpha-reductase
- *50% Inhibition (5-alpha-reductase; rat liver microsomes): 30 µg/mL
- *Specific Binding % Inhibition (androgen receptor (AR); [3]): 28%
- *hAG (agonist) ([1]; tested at 500 μg/ml): Clear
- *hAT (antagonist) ([1]; tested at 500 μg/ml): Clear

Compound: CC1=CCC(C(C)(C)O)CC1 (stereo not drawn) [alpha-terpineol]
- 5-alpha-reductase inhibition, in words (5-alpha-reductase): significant 5ARI activity

Compound: CC1(C)C=Cc2c(ccc3c2OC[C@@H](c2ccc(O)cc2O)C3)O1 [#4 Glabridin, Glabridin]
- 5-alpha-reductase inhibition, in words (5-alpha-reductase): significant 5ARI activity; also recorded: potent dihydrotestosterone reductase inhibitors
- 5-alpha-reductase inhibition, in words (5-alpha-reductase; listed as #4): interfere with the activity of 5-alpha-reductase
- IC50 (5-alpha-reductase; [4]): 89.4 µM
- concentration toxic to yeast cells (yeast cells): above 1×10^−4 M
- estrogenic response (agonism), in words (ERα; 1×10^−7 to 1×10^−4 M): does not exert any estrogenic response
- inhibition of the E2 response (ERα; at 6×10^−6 M, without being toxic towards yeast cells): ~80%
- ERα antagonism, in words (ERα): ERα-selective antagonist
- reduction of estrogenic E2 (ERα): 80%
- solubility in water, in words [2]: insoluble in water
- androgen receptor binding / interference with testosterone binding, in words (androgen receptor (AR)): does not interfere with normal testosterone to androgen receptor binding
- inhibition at 500 µg/mL (androgen receptor (AR); tested at 500 μg/ml, rat prostatic cytosol, read-out: *Specific Binding % Inhibition): 0%
- *hAG (agonist) ([1]; tested at 5 μg/ml): Inactive
- *hAT (antagonist) ([1]; tested at 5 μg/ml): Inactive
- estrogenic response (agonism), in words (ERβ; 1×10^−7 to 1×10^−4 M): does not exert any estrogenic response
- ERβ antagonism, in words (ERβ): did not have antagonistic properties

Compound: C=CC(C)(C)c1cc(/C=C/C(=O)c2ccc(O)cc2)c(OC)cc1O [#5 Licochalcone A, Licochalcone A]
- 5-alpha-reductase inhibition, in words (5-alpha-reductase; listed as #5): interfere with the activity of 5-alpha-reductase
- 5-alpha-reductase inhibition, in words (5-alpha-reductase; listed as Licochalcone A): potent dihydrotestosterone reductase inhibitors
- 5-alpha-reductase inhibition, in words (5-alpha-reductase; listed as licochalcone A): significant 5ARI activity
- *50% Inhibition (5-alpha-reductase; rat liver microsomes): 7 µg/mL
- *Specific Binding % Inhibition (androgen receptor (AR); [3]): 21%
- *hAG (agonist) ([1]; tested at 5 μg/ml): Inactive
- *hAT (antagonist) ([1]; tested at 5 μg/ml): Inactive

Compound: CC(C)(C)NC(=O)[C@H]1CC[C@H]2[C@@H]3CC[C@H]4NC(=O)C=C[C@]4(C)[C@H]3CC[C@]12C [Finasteride Proscar Control, Finasteride, reference compound]
- IC50 (5-alpha-reductase; positive control, read-out: IC50 (converted)): ~0.188 µM
- IC50 (5-alpha-reductase; [4]): 0.188 µM

Compound: C[C@@H](CC[C@@]1(O)O[C@H]2C[C@H]3[C@@H]4CC=C5C[C@@H](O[C@@H]6O[C@H](CO)[C@@H](O)[C@H](O[C@@H]7O[C@H](CO)[C@@H](O)[C@H](O)[C@H]7O)[C@H]6O[C@@H]6O[C@@H](C)[C@H](O)[C@@H](O)[C@H]6O)CC[C@]5(C)[C@H]4CC[C@]3(C)[C@H]2[C@@H]1C)CO[C@@H]1O[C@H](CO)[C@@H](O)[C@H](O)[C@H]1O [#9 Protogracillin, Protogracillin]
- 5-alpha-reductase inhibition, in words (5-alpha-reductase): did not inhibit 5AR
- androgen receptor binding / interference with testosterone binding, in words (androgen receptor (AR); listed as Protogracillin): does not interfere with normal testosterone binding to receptor
- androgen receptor binding / interference with testosterone binding, in words (androgen receptor (AR); listed as protogracillin): did not interfere with regular testosterone receptor binding
- *Specific Binding % Inhibition (androgen receptor (AR); [3]): 0%
- hAR assay activity, in words [1]: testosterone agonist activity
- receptor affinity relative to cyproterone's binding affinity [1]: 1/200
- *hAG (agonist) ([1]; tested at 100 μg/ml): Active (2)
- *hAT (antagonist) ([1]; tested at 100 μg/ml): Inactive
